Source: patent US20250281424A1 (New York Blood Center, Inc, priority 2020, published 2025)

Target: T1, human PF4 (Homo sapiens, UniProt P02776)
T1 construct: PF4 is a 70 amino acid, lysine-rich 7.8 kDa platelet-specific protein; made in house; host or cells: Escherichia coli BL21DE3 pLysS (pT7-7) and/or Drosophila S2 cells
T1 sequence (P02776 32-101): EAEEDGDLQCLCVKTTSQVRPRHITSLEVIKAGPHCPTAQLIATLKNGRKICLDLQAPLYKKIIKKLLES
Test: Inhibition of PF4 tetramer formation (BS3 cross-linking, SDS-PAGE)
Type: biochemical
Conditions: for inhibition at 5 µM: 5 μM inhibitor; for inhibition at 5 µM / inhibition at 10 µM / inhibition at 1 µM / inhibition at 3 µM: read-out: % inhibition of PF4 tetramer formation at single concentration of inhibitor; for inhibition at 10 µM: 10 μM inhibitor (column A); for IC50: read-out: IC50 of PF4 tetramer formation inhibition
Outline: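 Recombinant human wild-type PF4 (E. coli-expressed, heparin-purified), 10 μg/ml in PBS, incubated with compound 15 min at 37° C or 60 min at room temperature, then cross-linked with 0.2 mM BS3 for 30 min at room temperature. Reducing 12% SDS-PAGE; bands quantified as % tetramer, trimer, dimer, monomer versus compound-free control.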

Q: Which results are given for `O=C(Cn1cnnn1)C1C(=O)c2ccc(S(=O)(=O)c3ccc4c(c3)C(=O)C(C(=O)Cn3cnnn3)C4=O)cc2C1=O` (centres unmarked) [Example 169, 5-({1,3-dioxo-2-[2-(1H-1,2,3,4-tetrazol-1-yl)acetyl]-2,3-dihydro-1H-inden-5-yl}sulfonyl)-2-[2-(1H-1,2,3,4-tetrazol-1-yl)acetyl]-2,3-dihydro-1H-indene-1,3-dione]?
A: inhibition at 5 µM: 70%; inhibition at 10 µM: 86%; IC50: 3000 nM

Q: Which results are given for `CC(C)C[C@@H](N)C(=O)C1C(=O)c2ccc(Oc3ccc4c(c3)C(=O)C(C(=O)[C@H](N)CC(C)C)C4=O)cc2C1=O` (stereo partly drawn) [Example 357, 2-[(2R)-2-amino-4-methylpentanoyl]-5-({2-[(2R)-2-amino-4-methylpentanoyl]-1,3-dioxo-2,3-dihydro-1H-inden-5-yl}oxy)-2,3-dihydro-1H-indene-1,3-dione]?
A: inhibition at 1 µM (1 μM inhibitor): 39%; inhibition at 3 µM (3 μM inhibitor (column A)): 74%; IC50: 1350 nM

Q: `COCCOCCNC(=O)C1C(=O)c2ccc(C(=O)c3ccc4c(c3)C(=O)C(C(=O)NCCOCCOC)C4=O)cc2C1=O` (centres unmarked) [Example 66, 5,5′-carbonylbis(n-(2-(2-methoxyethoxy)ethyl)-1,3-dioxo-2,3-dihydro-1h-indene-2-carboxamide)] was tested. Which inhibition at 5 µM did it give?
A: 48%

Q: What about the inhibition at 10 µM of the same compound?
A: 86%

Q: With `CC(C)(C)OC(=O)N1CCC[C@H]1CC(=O)C1C(=O)c2ccc(C(=O)c3ccc4c(c3)C(=O)C(C(=O)C[C@@H]3CCCN3C(=O)OC(C)(C)C)C4=O)cc2C1=O` (stereo in doubt) [Example 112, tert-butyl (2S)-2-{2-[5-(2-{2-[(2S)-1-[(tert-butoxy)carbonyl]pyrrolidin-2-yl]acetyl}-1,3-dioxo-2,3-dihydro-1H-indene-5-carbonyl)-1,3-dioxo-2,3-dihydro-1H-inden-2-yl]-2-oxoethyl}pyrrolidine-1-carboxylate] as the compound, how does the inhibition at 5 µM read?
A: 84%

Q: What about the inhibition at 10 µM of the same compound?
A: 89%

Q: And the IC50?
A: 1200 nM

Q: How did the inhibition at 1 µM (1 μM inhibitor) turn out when `CN(CC(=O)C1C(=O)c2ccc(Oc3ccc4c(c3)C(=O)C(C(=O)CN(C)C(=O)OC(C)(C)C)C4=O)cc2C1=O)C(=O)OC(C)(C)C` (centres unmarked) [Example 263, tert-butyl N-[2-(5-{[2-(2-{[(tert-butoxy)carbonyl](methyl)amino}acetyl)-1,3-dioxo-2,3-dihydro-1H-inden-5-yl]oxy}-1,3-dioxo-2,3-dihydro-1H-inden-2-yl)-2-oxoethyl]-N-methylcarbamate] was run?
A: 72%

Q: And the inhibition at 3 µM (3 μM inhibitor (column A))?
A: 69%

Q: What about the IC50 of the same compound?
A: 2070 nM

Q: With `O=C1CC(=O)c2cc(S(=O)(=O)c3ccc4c(c3)C(=O)CC4=O)ccc21` [Example 12, 5,5′-sulfonylbis(1h-indene-1,3(2h)-dione)] as the compound, how does the IC50 read?
A: 2320 nM

Q: How did the IC50 turn out when `O=C(c1ccc2c(c1)C(=O)C(C(=O)NCC1CC1)C2=O)c1ccc2c(c1)C(=O)C(C(=O)NCC1CC1)C2=O` (centres unmarked) [Example 76, N-(cyclopropylmethyl)-5-{2-[(cyclopropylmethyl)carbamoyl]-1,3-dioxo-2,3-dihydro-1H-indene-5-carbonyl}-1,3-dioxo-2,3-dihydro-1H-indene-2-carboxamide] was run?
A: 2100 nM

Q: What does the source list for `CC(C)(C)OC(=O)N[C@@H](C(=O)C1C(=O)c2ccc(C(=O)c3ccc4c(c3)C(=O)C(C(=O)[C@H](NC(=O)OC(C)(C)C)c3ccccc3)C4=O)cc2C1=O)c1ccccc1` (stereo partly drawn) [Example 170, tert-butyl N-[(1R)-2-(5-{2-[(2R)-2-{[(tert-butoxy)carbonyl]amino}-2-phenylacetyl]-1,3-dioxo-2,3-dihydro-1H-indene-5-carbonyl}-1,3-dioxo-2,3-dihydro-1H-inden-2-yl)-2-oxo-1-phenylethyl]carbamate]?
A: inhibition at 5 µM: 76%; inhibition at 10 µM: 85%; IC50: 3400 nM

Q: Which inhibition at 5 µM does the source give for `O=C(c1ccc2c(c1)C(=O)C(C(=O)NC1CC1)C2=O)c1ccc2c(c1)C(=O)C(C(=O)NC1CC1)C2=O` (centres unmarked) [Example 21, 5,5′-carbonylbis(1,3-dioxo-indan-2-carboxylic acid (cyclopropyl)-amide)] here?
A: 27%

Q: And the inhibition at 10 µM?
A: 46%

Q: With `CC(C)CC(=O)C1C(=O)c2ccc(S(=O)(=O)c3ccc4c(c3)C(=O)C(C(=O)CC(C)C)C4=O)cc2C1=O` (centres unmarked) [Example 145, 2-(3-methylbutanoyl)-5-{[2-(3-methylbutanoyl)-1,3-dioxo-2,3-dihydro-1H-inden-5-yl]sulfonyl}-2,3-dihydro-1H-indene-1,3-dione] as the compound, how does the inhibition at 5 µM read?
A: 45%

Q: And the inhibition at 10 µM?
A: 55%

Q: With `CCC(=O)C1C(=O)c2ccc(S(=O)(=O)c3ccc4c(c3)C(=O)C(C(=O)CC)C4=O)cc2C1=O` (centres unmarked) [Example 325, 5-[(1,3-dioxo-2-propanoyl-2,3-dihydro-1H-inden-5-yl)sulfonyl]-2-propanoyl-2,3-dihydro-1H-indene-1,3-dione] as the compound, how does the inhibition at 10 µM read?
A: 34%

Q: For `CC(=O)NCC(=O)C1C(=O)c2ccc(Oc3ccc4c(c3)C(=O)C(C(=O)CNC(C)=O)C4=O)cc2C1=O` (centres unmarked) [Example 298, N-[2-(5-{[2-(2-acetamidoacetyl)-1,3-dioxo-2,3-dihydro-1H-inden-5-yl]oxy}-1,3-dioxo-2,3-dihydro-1H-inden-2-yl)-2-oxoethyl]acetamide], which “% inhibition of PF4 tetramer formation at single concentration of inhibitor” value (1 μM inhibitor, 1 µM) is on record?
A: 32%

Q: What about the “% inhibition of PF4 tetramer formation at single concentration of inhibitor” value (3 μM inhibitor (column A), 3 µM) of the same compound?
A: 60%

Q: Which results are given for `O=C(O)CC(=O)C1C(=O)c2ccc(S(=O)(=O)c3ccc4c(c3)C(=O)C(C(=O)CC(=O)O)C4=O)cc2C1=O` (centres unmarked) [Example 404, 3-(5-{[2-(2-carboxyacetyl)-1,3-dioxo-2,3-dihydro-1H-inden-5-yl]sulfonyl}-1,3-dioxo-2,3-dihydro-1H-inden-2-yl)-3-oxopropanoic acid]?
A: inhibition at 1 µM (1 μM inhibitor): 24%; inhibition at 3 µM (3 μM inhibitor (column A)): 28%

Q: What does the source list for `CN1CCC[C@H]1C(=O)C1C(=O)c2ccc(S(=O)(=O)c3ccc4c(c3)C(=O)C(C(=O)[C@@H]3CCCN3C)C4=O)cc2C1=O` (stereo partly drawn) [Example 167, 2-[(2S)-1-methylpyrrolidine-2-carbonyl]-5-({2-[(2S)-1-methylpyrrolidine-2-carbonyl]-1,3-dioxo-2,3-dihydro-1H-inden-5-yl}sulfonyl)-2,3-dihydro-1H-indene-1,3-dione]?
A: inhibition at 5 µM: 18%; inhibition at 10 µM: 36%

Q: Which inhibition at 5 µM does the source give for `CC(C)(C)OC(=O)NCCC(=O)C1C(=O)c2ccc(C(=O)c3ccc4c(c3)C(=O)C(C(=O)CCNC(=O)OC(C)(C)C)C4=O)cc2C1=O` (centres unmarked) [Example 163, tert-butyl N-(3-{5-[2-(3-{[(tert-butoxy)carbonyl]amino}propanoyl)-1,3-dioxo-2,3-dihydro-1H-indene-5-carbonyl]-1,3-dioxo-2,3-dihydro-1H-inden-2-yl}-3-oxopropyl)carbamate] here?
A: 87%

Q: And the inhibition at 10 µM?
A: 93%

Q: What about the IC50 of the same compound?
A: 13000 nM

Q: How did the inhibition at 5 µM turn out when `CC(=O)NCC(=O)C1C(=O)c2ccc(C(=O)c3ccc4c(c3)C(=O)C(C(=O)CNC(C)=O)C4=O)cc2C1=O` (centres unmarked) [Example 181, N-(2-{5-[2-(2-acetamidoacetyl)-1,3-dioxo-2,3-dihydro-1H-indene-5-carbonyl]-1,3-dioxo-2,3-dihydro-1H-inden-2-yl}-2-oxoethyl)acetamide] was run?
A: 86%

Q: What about the inhibition at 10 µM of the same compound?
A: 96%

Q: And the IC50?
A: 1600 nM

Q: Which results are given for `O=C(CSc1ccncc1)C1C(=O)c2ccc(S(=O)(=O)c3ccc4c(c3)C(=O)C(C(=O)CSc3ccncc3)C4=O)cc2C1=O` (centres unmarked) [Example 290, 5-({1,3-dioxo-2-[2-(pyridin-4-ylsulfanyl)acetyl]-2,3-dihydro-1H-inden-5-yl}sulfonyl)-2-[2-(pyridin-4-ylsulfanyl)acetyl]-2,3-dihydro-1H-indene-1,3-dione]?
A: inhibition at 1 µM (1 μM inhibitor): 39%; inhibition at 3 µM (3 μM inhibitor (column A)): 51%
